Eight compounds from article PMC9450471 (Computational Biology and Chemistry, 2022) can be followed below.

Where only a bound is given, the exact number is not on record here.

A short description of the data set: in vitro. The following applies: African green monkey.
In the case of `CC(C)Nc1nc2cc(Cl)c(Cl)cc2n1[C@H]1O[C@@H](CO)[C@H](O)[C@@H]1O` [Maribavir], the CC50 was greater than 100 µM.

`CC(C)=CCNc1ncnc2c1ncn2[C@@H]1O[C@H](CO)[C@@H](O)[C@H]1O` [Riboprine, N ^6-(2-Isopentenyl)adenosine] had a CC50 greater than 100 µM.

On to `CC(C)C(=O)OC[C@H]1O[C@@H](n2ccc(NO)nc2=O)[C@H](O)[C@@H]1O` [Molnupiravir], for which the CC50 was greater than 100 µM.

`Nc1ncnc2c1ncn2[C@@H]1O[C@H](CO)[C@@H](O)[C@@H]1O` [Vidarabine, Arabinosyladenine] showed a CC50 greater than 100 µM.

`OC[C@H]1O[C@@H](n2cnc3c(N[C@@H]4CCOC4)ncnc32)[C@H](O)[C@@H]1O` [Tecadenoson] returned a CC50 greater than 100 µM.

The compound `O=c1[nH]cnc2c([C@@H]3N[C@H](CO)[C@@H](O)[C@H]3O)c[nH]c12` [Forodesine] gave a CC50 greater than 100 µM.

`CCC(CC)COC(=O)[C@H](C)N[P@](=O)(OC[C@H]1O[C@@](C#N)(c2ccc3c(N)ncnn23)[C@H](O)[C@@H]1O)Oc1ccccc1` [Remdesivir] returned a CC50 greater than 100 µM.

The compound `COc1nc(N)nc2c1ncn2[C@@H]1O[C@H](CO)[C@@H](O)[C@@H]1O` [Nelarabine] returned a CC50 greater than 100 µM.
